Laboratory results taken from patent publication US20070010428A1, “Inhibitors of signal transduction and activator of transcription 3” (priority 2004, published 2007).
Like-named read-outs stand apart in the source and are kept apart here. Where a SMILES comes first, the peptide text is derived from it. [ ]: non-standard residue; d: D form. pY = N[C@@H](Cc1ccc(OP(=O)(O)O)cc1)C(=O)O; mts = not defined here

Experiments:
[1] = tested on: SH2 domain of Stat3; test: IC50 FP (nM)
Protocol: Table printed on a drawing sheet, FIGURE 14a
Head of the field: IC50 FP (nM)
First copying reader's note: The column headed 'Structure' holds only drawn chemical structures (left empty here); the written peptidomimetic sequence stands in an unheaded column to its left.
Where the first naming reader finds the target: passage: The small peptidomimetics were assayed for their ability to bind to the SH2 domain of Stat3 using fluoresence polarization.

[2] = molecular target: T1, full length Stat3 (Homo sapiens, UniProt P40763); test: Fluorescence polarization assay, competition with FP probe for full length Stat3; format: binding
T1 construct: Aliquots of 50 μl of 80 nM full length Stat^3a and 20 nM of probe
T1 sequence (P40763 whole entry, species assumed): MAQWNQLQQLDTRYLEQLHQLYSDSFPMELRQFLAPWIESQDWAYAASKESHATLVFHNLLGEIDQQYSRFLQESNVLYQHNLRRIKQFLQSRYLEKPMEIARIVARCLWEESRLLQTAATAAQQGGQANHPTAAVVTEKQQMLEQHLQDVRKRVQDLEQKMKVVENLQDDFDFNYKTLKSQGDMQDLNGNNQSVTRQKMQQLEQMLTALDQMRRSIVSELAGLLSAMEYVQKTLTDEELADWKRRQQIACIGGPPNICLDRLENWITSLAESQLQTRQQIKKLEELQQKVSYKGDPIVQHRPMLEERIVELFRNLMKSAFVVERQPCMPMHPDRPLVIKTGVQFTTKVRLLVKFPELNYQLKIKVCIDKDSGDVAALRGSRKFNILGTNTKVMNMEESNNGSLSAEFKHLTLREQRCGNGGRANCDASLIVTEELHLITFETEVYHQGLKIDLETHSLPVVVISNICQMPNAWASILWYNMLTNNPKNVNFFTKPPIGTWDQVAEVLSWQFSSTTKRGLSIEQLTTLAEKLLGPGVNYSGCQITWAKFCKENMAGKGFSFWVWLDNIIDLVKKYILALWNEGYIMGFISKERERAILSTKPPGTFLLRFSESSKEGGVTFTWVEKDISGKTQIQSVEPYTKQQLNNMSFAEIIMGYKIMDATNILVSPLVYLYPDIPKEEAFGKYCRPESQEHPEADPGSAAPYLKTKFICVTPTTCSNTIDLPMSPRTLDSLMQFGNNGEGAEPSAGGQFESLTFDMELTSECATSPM
Protocol: FIG. 5 is FP curves of Stat3. Left panel, Titration of full length Stat3 into 10 nM solutions of FP probe. Each protein concentration was run in duplicate and the mean ±½ the difference between the high and low value was plotted. […] Each peptide concentration was run in duplicate and the mean ±½ the difference between the high and low value was plotted. A Perkin Elmer (formerly Packard) 204DT Multiprobe liquid handling robot was used to prepare serial dilutions of the inhibitors and to add these solutions to Stat3-probe solutions. The dilutions and additions were done in 96-well plates and FP was read on a Tecan Polarian plate reader. […]
Fluorescence polarization (FP) is a rapid and easy method for the measurement of peptide-protein interactions, drug-protein interactions, and drug-oligonucleotide interactions, and is readily adaptable to high throughput formats (reviewed in Nasir & Joley, 1999; Owicki, 2000). FP involves exciting a fluorophore with polarized light and taking the ratio of fluorescence at right angles after a brief period of time. […]
Aliquots of 50 μl of 80 nM full length Stat^3a and 20 nM of probe in 50 mM NaCl, 10 mM Hepes, 1 mM Na4EDTA, 2 mM DTT, and 1% NP-40 were placed in wells of a 96 well black, opaque, non-stick microtiter plate. […] Fluorescence polarization was then read in a Tecan Polarian plate reader. […]

[3] = tested on: Stat3-responsive α2-macroglobulin promoter; test: IL-6 stimulated luciferase reporter under α2-macroglobulin promoter in HEPG2 cells; format: cell-based; details: for inhibition of luciferase activity, initial screen: IL-6
Protocol: Liver hepatoma cells, HEPG2, when stimulated with IL-6, respond by increased phosphorylation of Stat3, which translocates to the nucleus and initiates transcription of acute response phase genes, such as a2-macroglobulin. HEPG2 cells were transfected with luciferase gene construct containing the α2-macroglobulin promoter. Cells were treated with peptides 21, 24, and 25 for 1 hr before stimulation with IL-6. Four hours later cells were lysed and luciferase activity was assayed (FIG. 9). […] Phosphopeptide 24 reduced induction to 60-70% of that of IL-6 at 50 and 100 μM.
(§1) Cell culture and transient transfection. HepG2 cells were grown in DMEM containing 10% fetal bovine serum. Cells were plated at a density of 3×10^5 per 6cm dish. Next day, plasmids were transfected with a plasmid comprised of firefly luciferase under the α2-macroglobulin promoter (Ren & Schaefer, 2002) at a ratio of 1 μg DNA to 3 μl Fugene-6 reagent according to the protocol supplied by Roche. After 48 hours, cells were treated with different peptides in serum free media for 1 hour, and then stimulated with […] IL-6. Cells were harvested at the time indicated.
(§2) Luciferase assay. Luciferase assay reagents were purchased from Promega and the assays performed according to the manufacturer's protocol. In brief, cells were washed twice with ice-cold PBS and then collected. After centrifugation at 4,500 rpm for 1 minute, cells were lysed in 1× lysis buffer (Promega) at room temperature for 30 minutes. The lysate was cleared by centrifugation at 13,000 rpm for 10 minutes. Then 50 μl of luciferase substrate was added to 10 μl of supernatant and the luciferase value was read by luminometer (Pharmingen). Each transfection was normalized to concomitant β-galactosidase expression from a control transfected plasmid pYN3214-lacZ.

[4] = molecular target: T2, Stat3 (Homo sapiens, UniProt P40763); details: cited from earlier work
T2 sequence (P40763 whole entry, species assumed): as above

[5] = molecular target: T2, Stat3; test: Stat3 nuclear translocation, EMSA of nuclear extracts of IL-6 stimulated HepG2 cells; format: cell-based; details: HepG2, 100 μM for 1 hr, IL-6 15 min
Protocol: FIG. 11 is an image of a gel showing EMSA of nuclear extracts of HEPG2 cells inhibited with peptides. Shown are gels from two independent experiments. Lane 1, control: no IL-6 or inhibitor. Lane 2-6 are all stimulated with IL-6, 6 ng/mL. Lane 2, no inhibitor, Lane 3 phosphopeptide 24, Lane 4, control peptide 25, Lane 5, F2PmCinn peptide 21, Lane 6, prodrug 23.
HepG2 cells were treated with 100 μM peptide for 1 hr. Cells were stimulated with IL-6 and 15 min later cells were lysed and nuclear extracts were obtained.
(§3) Nuclear extract was extracted as previously described (Andrews and Faller, 1991). Equal amount of nuclear extract protein was then incubated with ^32P labeled high-affinity c-sis-inducible element (hSIE; 5′-[…]-3′ , SEQ ID NO:25) (Santa Cruz). The reactions were performed in a total volume of 24 μl in buffer consisting of 10 mM HEPES (pH 7.8), 50 mM KCl, 1 mM EDTA, 5 mM MgCl2, 10% glycerol, 5 mM dithiothreitol, 1 mg of bovine serum albumin per ml, 0.5 mM phenyl-methylsulfonylflouride, and 1 mM Na3VO4 with 1 μg of poly (dI-dC) and 0.3 ng of ^32P-labeled hSIE. Following incubation for 15 min at room temperature, the reactions were electrophoresed on 4% native polyacrylamide gets. […] The screen was then scanned and the bands showing Stat3-DNA binding were quantified using the Storm System (Molecular Dynamics).

[6] = molecular target: T2, Stat3; test: EMSA of inhibition of Stat3 dimerization and DNA binding by phosphopeptides; format: biochemical; details: averages of two determinations
Protocol: To find a lead compound for inhibitor development, a series of phospho-hexapeptides derived from known receptor docking sites for Stat3 were synthesized and assayed for their ability to inhibit Stat3 dimerization and DNA binding using electrophoretic mobility shift assays (EMSA) (Ren et al., 2003). […] SAR experiments were conducted systematically replacing each amino acid. The goal was to find non-peptidic groups that would be stable to phosphatases and proteases, and that would be more hydrophobic to allow greater bioavailability. […] The small peptidomimetics were assayed for their ability to bind to the SH2 domain of Stat3 using fluoresence polarization.
as §3, with “hSIE.” for “hSIE. Following incubation for 15 min at room temperature, the reactions were electrophoresed on 4% native polyacrylamide gets.”

[7] = tested on: Stat3-responsive α2-macroglobulin promoter; test: IL-6 stimulated luciferase reporter in Hep3B cells; format: cell-based; details: FIG. 10
Protocol: Peptidomimetic 23 was tested for the ability to inhibit luciferase induction in a second hepatoma cell line: Hep3B. Identical procedures as for the HEPG2 experiments above were used in this cell line.
as §1
as §2, with “Each transfection was normalized to concomitant β-galactosidase expression from a control transfected plasmid pYN3214-lacZ.” left out

F2PmCinn-Cha-Pro- Gln-NHBn [8 | PM-88D]
IC50 [1]: 2000 nM

NC(=O)CCC(NC(=O)C1CCC2CCC(NC(=O)C=Cc3ccc(OP(=O)(O)O)cc3)C(=O)N21)C(=O)NCc1ccccc1 (stereo not drawn) [FIG. 15 compound]
IC50 ([2]; assay not named, presumably fluorescence polarization, read-out: IC50 of the FIG. 15 compound): 400 nM

H-Pro-Tyr-Leu-Lys-Thr-Lys-Phe-Ile-mts (H-PYLKTKFI-mts; not fully specified; reading uncertain) [Peptide 26, reported by Turkson et al (2001), reference compound]
inhibition of luciferase activity, initial screen ([3]; HEPG2, 100 μM): neither phosphopeptide 26 nor the unphosphorylated version, 27 (Turkson et al, 2001), showed inhibition of luciferase activity

CC(C)C[C@H](NC(=O)[C@H](Cc1ccc(OP(=O)(O)O)cc1)NC(=O)c1ccc(C#N)cc1)C(=O)O [ISS 610]
concentration required for activity in luciferase reporter and cell growth assays ([4]; cell culture models, Turkson et al. (2004)): 1 mM

CC(=O)NC(Cc1ccc(OP(=O)(O)O)cc1)C(=O)NC1CCc2cccc3c2N(C1=O)C(C(=O)NC(CCC(N)=O)C(=O)NC(C(N)=O)C(C)O)C3 (stereo not drawn) [Compound 10, Ac-pTyr-Haic-Gln-Thr-NH2]
IC50 ([2]; 10 nM probe and 40 nM Stat3 final, read-out: IC50 (fluorescence polarization)): 100 to 200 nM

pCinn-Leu-Pro-Gln- Thr-NH2 [5 | PM-50D]
IC50 [1]: 110 nM

pInd-Cha-Pro-Gln- NHBn [9 | PM-67D]
IC50 [1]: 100 nM

F2PmCinn-Leu-Pro-Gln-Thr-Val-Ala-Ala-Val-Leu-Leu-Pro-Val-Leu-Leu-Ala-Ala-Pro-NH2 [Peptide 21]
luciferase activity, % of untreated cells ([3]; HEPG2, 50 μM): 50% | luciferase activity, % of untreated cells ([3]; HEPG2, 100 μM): 25% | inhibition of Stat3 translocation to the nucleus [5]: inhibited Stat3 translocation to the nucleus

pCinn-Cha-Pro-Gln- NHBn [7 | PM-66D]
IC50 [1]: 50 nM

H-P[pY]LKTKAAVLLPVLLAAP-OH [SEQ ID NO:4]
concentration required to inhibit luciferase reporter gene expression, Stat3 nuclear translocation, and cell growth ([4]; cell culture, Turkson et al.): 0.5 to 1 mM

Ac-pTyr-Leu-Pro-Gln-Thr-Val-mts (Ac-[pY]LPQTV-mts; reading uncertain; also: printed as Ac-pTyr-Leu-Pro-Gln-Thr-Val-mts) [Peptide 24]
luciferase induction, % of that of IL-6 ([3]; HEPG2, at 50 and 100 μM): 60-70%

H-Pro-pTyr-Leu-Lys-Thr-Lys-Phe-Ile-mts (H-P[pY]LKTKFI-mts; reading uncertain; also: printed as H-Pro-pTyr-Leu-Lys-Thr-Lys-Phe-Ile-mts) [Peptide 27, reported by Turkson et al (2001), reference compound]
inhibition of luciferase activity, initial screen ([3]; HEPG2, 100 μM): neither phosphopeptide 26 nor the unphosphorylated version, 27 (Turkson et al, 2001), showed inhibition of luciferase activity

CC(=O)N[C@@H](Cc1ccc(OP(=O)(O)O)cc1)C(=O)N[C@@H](CC(C)C)C(=O)N[C@@H](CCCCN)C(=O)N[C@H](C(=O)N[C@@H](CCCCN)C(=O)N[C@@H](Cc1ccccc1)C(N)=O)[C@@H](C)O [Peptide 2, Ac-pTyr-Leu-Lys-Thr-Lys-Phe-NH2] (Ac-[pY]LKTKF-NH2)
IC50 [6]: 20000 nM

F2Pm(POM)Cinn-Haic-Gln-NHBn [Compound 23]
reduction in luciferase activity [7]: dose dependant reduction in luciferase activity | inhibition of Stat3 translocation to the nucleus [5]: inhibited Stat3 translocation to the nucleus

Ac-Tyr-Leu-Pro-Gln-Thr-Val-mts (Ac-YLPQTV-mts; not fully specified; printed as Ac-Tyr-Leu-Pro-Gln-Thr-Val-mts; reading uncertain) [Peptide 25, non-phosphorylated control]
reduction in luciferase activity ([3]; HEPG2, 50 or 100 μM, 1 hr before IL-6, lysed 4 h later): no significant reduction in luciferase activity
